# From patent publication US11890279B2, “Quinolines that modulate SERCA and their use for treating disease” (Neurodon Corporation, priority 2020, dated 2024)
# Tests used:
# [1] = Pharmacokinetics in CD-1 mice; assay type: in vivo, mouse; settings: for F / AUC / Cmax / half-life: CD-1 mice; for F: 10 mg/kg P.O. vs 2 mg/kg i.v.; for AUC / Cmax / half-life: mouse, plasma, 2 mg/kg i.v. or 10 mg/kg P.O.; for pharmacokinetic properties as measured by CMAX, AUC and F (%): compared with other SERCA modulators, see Table 6
# Method: Pharmacokinetics of test compounds were assessed in CD-1 mice. The compounds were formulated at 1 mg/mL in DMSO/Tween 80/water (10/10/80, vol/vol/vol) and dosed at 2 mg/kg intravenous (i.v.) or 10 mg/kg by oral gavage (P.O.) in triplicate. Blood was drawn at 0.25 h, 0.5 h, 1 hr, 2 hrs, 4 hrs, 8 hrs, and 24 hrs into EDTA containing tubes and plasma was harvested by centrifugation. Plasma (10 μL) containing 50% acetonitrile in water (5 μL) was added to 200 μL of ACN containing an internal standard. The samples were vortexed for 30 s. After centrifugation at […] and 4,000 rpm for 15 min, the supernatant was diluted 3 times with water. Then, 20 μL of diluted supernatant was injected into the LC/MS/MS system for quantitative analysis. The samples were injected onto an Agilent ZORBAX XDB-Phenyl 5μ column (50×2.10 mm). Mobile Phase A was water with 0.1% formic acid. Mobile Phase B was acetonitrile with 0.1% formic acid. Separation was achieved using a gradient of 70% A/30% B to 0% A/100% B over 2.10 min. A Shimadzu LCMS-8050 equipped with a turbo ion spray source was used for all analytical measurements. A positive ion MRM method was developed. Peak areas of the product ion were measured against the peak areas of the internal standard. Data was fit using WinNonLin (Pharsight Corporation, Mountain View, CA).
# human islet microtissues = assay: Protection of human pancreatic islets under cytokine stress; assay type: cell-based; settings: 168 h, compound 5 μM, cytokine cocktail IL1-β, IFN-γ, TNF-α, 7 days, read-out: increase in viability over baseline (total ATP content)
# Method: Human pancreatic islet microtissues treated with cytokines were used to model the conditions of Type 1 Diabetes in vitro. This study tested the effects of compounds on […] viability in human islets under cytokine stress. The model consisted of human islet microtissues from an HLA-A2 positive donor grown and separated in a 96-well plate (1 microtissue per well). The microtissues were treated for 7 days with a cocktail of cytokines (IL1-β 5 ng/mL, IFN-γ 25 ng/mL, TNF-α 25 ng/mL) and compound (5 μM) or vehicle. There were 6 microtissues treated per compound or vehicle. At day 7, the total ATP content was measured using CellTiter-Glo (Promega).
# SERCA (SR vesicles) = assay: Activation of SERCA, increase in Vmax; assay type: biochemical
# Method: Test compounds were characterized over a range of concentrations using an NADH-linked, enzyme-coupled ATPase assay. Each well contained 2 mg or 7 mg of SR vesicles (optimized for skeletal or cardiac SR, respectively), 50 mM MOPS (pH 7.0), 100 mM KCl, 5 mM MgCl2, 1 mM EGTA, 0.2 mM NADH, 1 mM phosphoenol pyruvate, 5 IU pyruvate kinase, 5 IU lactate dehydrogenase, and 3.5 mg/mL A23187 (a calcium ionophore), and CaCl2 was added to set free [Ca2+] to the specific values. The assay was started upon addition of ATP at a final concentration of 5 mM, and read in a SpectraMax Plus microplate spectrophotometer and the ATPase activities were fitted using the Hill function.
# [2] = Pharmacokinetics in Beagle dogs; assay type: in vivo; settings: dog; for MRT inf: read-out: MRT0-∞
# Method: Pharmacokinetics of compound A13 was assessed in dogs. […] For pharmacokinetic evaluation, 3 male Beagle dogs were intravenously (IV) dosed (1 mg/kg body weight) and 3 male Beagle dogs were orally (PO) dosed (10 mg/kg body weight) with a test compound. Blood (approximately 1.0 mL) was collected via femoral vein into tubes containing K3EDTA anticoagulant at 0, 0.017, 0.083, 0.5, 1, 2, 4, 6, 8, and 24 hours post-dosing. Plasma samples were analyzed by LC-MS/MS. The analytical results were confirmed using quality control samples for intra-assay variation. The accuracy of >66% of the quality control samples was between 80-120% of the known value(s). A standard set of pharmacokinetic parameters were generated from concentration data including Area Under the Curve (AUC0-t and AUC0-inf), elimination half-lives, clearances, volume of distribution and bioavailabilities (based on AUC0-t), maximum plasma concentration (C0; Cmax), and time to reach maximum plasma concentration (Tmax).
# Ca^2+-ATPase = assay: Ca2+-ATPase assay, microsomal preparations from HEK 293 cells; assay type: biochemical, human
# Method: A Ca^2+-ATPase assay was performed using microsomal preparations from HEK 293 cells at a series of calcium concentrations corresponding to the physiological range, relative to controls. The ATP hydrolysis rate was measured over a range of calcium concentrations in the presence of test compounds using an NADH-linked, enzyme-coupled ATPase assay adapted for 96-well microplates, with Vmax determined by fitting the ATPase calcium-dependence to the Hill function. […] CaCl2 was added to set free [Ca^2+] to the specific values.
# [3] = Pharmacokinetics in Sprague Dawley rats; assay type: in vivo, rat; settings: rat; for AUC(0-inf) / Cmax / Tmax / clearance / half-life / AUC(0-t) / MRT inf / Vd: Sprague Dawley, in vivo; for AUC(0-t): read-out: AUC0-t; for MRT inf: read-out: MRT0-∞; for Vd: read-out: Vz; for F: PO 10 mg/kg vs IV 2 mg/kg
# Method: Blood was drawn at 5 min, 15 min, 30 min, 1 hr, 2 hrs, 4 hrs, 6 hrs, and 8 hrs into EDTA containing tubes and plasma was harvested by centrifugation. Plasma (25 μL) was treated with acetonitrile (125 μL) containing an internal standard. The sample was then centrifuged for 5 min at 4,000 rpm in a tabletop centrifuge and the filtrate was collected. The filtrate was injected onto a Thermo Betasil C18 HPLC column 5 (50×2.1 mm). Mobile Phase A was water with 0.1% formic acid. Mobile Phase B was acetonitrile with 0.1% formic acid. […] An API Sciex 4000 equipped with a turbo ion spray source was used for all analytical measurements. A positive ion MRM method was developed. Peak areas of the product ion were measured against the peak areas of the internal standard. Data was fit using WinNonLin (Pharsight Corporation, Mountain View, CA).
# CSM14.1 cells = assay: ER stress cell survival assay (thapsigargin); assay type: cell-based; settings: for Cell Survival: compound 2 μM, about 15 μM thapsigargin, CSM14.1 cells;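 as to cell survival: survival read as CellTiter-Glo luminescence after overnight incubation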
# N2a cells [4] = assay: Protection against thapsigargin (TG)-induced cell death, N2a; assay type: cell-based, mouse; settings: compound 20 μM; thapsigargin 1 μM; 24 hrs
# Method: (§1) Protection against Thapsigargin (TG)-induced Cell-death. Human embryonic kidney (HEK293) cells were grown in Dulbecco's Modified Eagle's Medium (DMEM) with 10% FBS and 1% antibiotic antimycotic solution (ABAM). Mouse neuroblastoma (N2a) cells were grown in 1:1 DMEM:OPTI-MEM® with 5% FBS and 1% ABAM. All cells were grown in 10% CO2 in a humidified environment of the incubator. Cells grown in 96-well plates were exposed to a test compound (20 μM) for 2 hrs before addition of thapsigargin (15 μM for HEK293 cells and 1 μM for N2a cells) to induce ER stress. After incubation in cell-culture incubator for 24 hrs, ALAMARBLUE® regent (10% v/v) was added to the wells. Fluorescence reading was taken 2 hrs after the addition of the ALAMARBLUE® regent. Cell-viability was calculated as a percentage of relative fluorescence unit (RFU) compared to control.
# (§2) The results are summarized in Table 2, where A represents a value greater than 50% cell rescue, B represents a value between 10% to 50% cell rescue, C represents a value between 1% to 10% cell rescue, and D represents a value no greater than 1% cell rescue.
# N2a cells [5] = assay: Protection against hydrogen peroxide-induced cell death, N2a; assay type: cell-based, mouse; settings: compound 40 μM; hydrogen peroxide 200 μM
# In short: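 N2a cells were pretreated 2 h with compound at 40 μM, then exposed to 200 μM H2O2 for 40 min. AlamarBlue (10% v/v) was added and fluorescence read 2 h later. Viability expressed as % RFU of control, reported as % cell rescue.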
# HEK293 cells = assay: Protection against thapsigargin (TG)-induced cell death, HEK293; assay type: cell-based, human; settings: compound 20 μM; thapsigargin 15 μM; 24 hrs
# Method: as §1, §2
# ob/ob mice = assay: Effect on the level of blood glucose in ob/ob mice; assay type: in vivo, mouse; settings: for blood glucose: 10 or 50 mg/kg i.p. once a day for 5 days, as early as day 2; for glucose level after the last injection: for over a week after the last injection
# Method: Fasting glucose was measured at baseline and 10 hours after the administration of the test compound. Glucose levels were measured in blood samples drawn from the tail vein using the OneTouch Ultra 2 Meter (LifeScan, Inc.).
# [6] = male, Beagle, plasma, IV 1 mg/kg
# [7] = male, Beagle, plasma, PO 10 mg/kg
SMILES,F [1],AUC [1],Cmax [1],half-life [1],viability at 5 µM (human islet microtissues),Increase in Vmax at 10 μM (SERCA (SR vesicles)),increase in baseline ATPase activity (Ca^2+-ATPase),AUC(0-inf) ([3]; IV 2 mg/kg),Cmax ([3]; IV 2 mg/kg),Tmax ([3]; IV 2 mg/kg),clearance ([3]; IV 2 mg/kg),half-life ([3]; IV 2 mg/kg),AUC(0-t) ([3]; IV 2 mg/kg),MRT inf ([3]; IV 2 mg/kg),AUC(0-inf) ([3]; PO 10 mg/kg),Cmax ([3]; PO 10 mg/kg),Tmax ([3]; PO 10 mg/kg),AUC(0-t) ([3]; PO 10 mg/kg),MRT inf ([3]; PO 10 mg/kg),F [3],also measured
"Cc1ccc2cccc(NC(=O)c3cccc(OC(C)C)c3)c2n1 [Compound A13, 3-Isopropoxy-N-(2-methylquinolin-8-yl)benzamide]",3.1%,26 ng·h/mL,120 nM,50.4 min,20 to 50%,B′ (B′ represents an increase between 20 to 50%),10-15%,847 ± 29 ng·h/mL,8370 ± 1100 nM,4.8 min,39.3 mL/min/kg,121 min,842 ± 31 ng·h/mL,27 min,234 ± 154 ng·h/mL,800 ± 350 nM,25.2 min,232 ± 154 ng·h/mL,38.4 min,5.5%,"F ([2]; PO 10 mg/kg vs IV 1 mg/kg): 1.4%; AUC(0-inf) [2, 6]: 96 ± 12 ng·h/mL; AUC(0-t) [2, 6]: 95 ± 12 ng·h/mL; Cmax [2, 6]: 2200 ± 500 nM; Tmax [2, 6]: 1.2 min; clearance [2, 6]: 177 mL/min/kg; half-life [2, 6]: 20.4 min; MRT inf [2, 6]: 12.6 min; Vd ([2]; male, Beagle, plasma, IV 1 mg/kg, read-out: Vz): 5.4 L/kg; Cmax [2, 7]: 80 ± 60 nM; Tmax [2, 7]: 21.6 min; half-life [2, 7]: 22.2 min; MRT inf [2, 7]: 37.2 min; Vd ([3]; IV 2 mg/kg): 6.87 L/kg; half-life ([3]; PO 10 mg/kg): 22.8 min"
"Cc1ccc(C(=O)Nc2cccc3ccc(C)nc23)c(Cl)c1 [Compound A17, 2-Chloro-4-methyl-N-(2-methylquinolin-8-yl)benzamide]",,,,,10 to 20%,A′ (A′ represents an increase greater than 50%),,381 ± 66 ng·h/mL,4420 ± 640 nM,1.2 min,,54 min,380 ± 66 ng·h/mL,35.4 min,587 ± 120 ng·h/mL,1690 ± 740 nM,15 min,583 ± 119 ng·h/mL,67.8 min,31%,EC50 (CSM14.1 cells; dose-response): 20 to 100 µM; Vd ([3]; IV 2 mg/kg): 7.01 L/kg
"COc1c(C)cccc1C(=O)Nc1cccc2ccc(C)nc12 [Compound A19, 2-Methoxy-3-methyl-N-(2-methylquinolin-8-yl)benzamide]",,,,,20 to 50%,A′ (A′ represents an increase greater than 50%),,309 ± 17 ng·h/mL,3850 ± 460 nM,1.2 min,0.167 mL/min/kg,27 min,299 ± 17 ng·h/mL,27.6 min,385 ± 99 ng·h/mL,1250 ± 400 nM,19.8 min,375 ± 105 ng·h/mL,45 min,25%,half-life ([3]; PO 10 mg/kg): 26.4 min
"CCNc1ccc(C(=O)Nc2cccc3ccc(C)nc23)cc1 [Compound C19, 4-(Ethylamino)-N-(2-methylquinolin-8-yl)benzamide]",27%,344 ng·h/mL,850 nM,138 min,20 to 50%,,10-15%,,,,,,,,,,,,,,"pharmacokinetic properties as measured by CMAX, AUC and F (%) [1]: significantly improved pharmacokinetic properties; N2a Cells (TG-induced) cell rescue (N2a cells [4]): B (B represents a value between 10% to 50% cell rescue); Cell Survival (CSM14.1 cells): A (A represents a value greater than 50%); N2a Cells (H2O2-induced) cell rescue (N2a cells [5]): A (A represents a value greater than 50% cell rescue); HEK293 Cells (TG-induced) cell rescue (HEK293 cells): A (A represents a value greater than 50% cell rescue); blood glucose (ob/ob mice): significantly lowered; glucose level after the last injection (ob/ob mice): identical to lean mice"
"Cc1ccc2cccc(NC(=O)c3ccc(NC(C)C)cc3)c2n1 [Compound C20, 4-(Isopropylamino)-N-(2-methylquinolin-8-yl)benzamide]",28%,330 ng·h/mL,860 nM,39.6 min,20 to 50%,,greater than 15%,,,,,,,,,,,,,,"pharmacokinetic properties as measured by CMAX, AUC and F (%) [1]: significantly improved pharmacokinetic properties; N2a Cells (TG-induced) cell rescue (N2a cells [4]): B (B represents a value between 10% to 50% cell rescue); Cell Survival (CSM14.1 cells): A (A represents a value greater than 50%); N2a Cells (H2O2-induced) cell rescue (N2a cells [5]): B (B represents a value between 10% to 50% cell rescue); HEK293 Cells (TG-induced) cell rescue (HEK293 cells): B (B represents a value between 10% to 50% cell rescue); blood glucose (ob/ob mice): significantly lowered; glucose level after the last injection (ob/ob mice): identical to lean mice"
